# Several values for one entry are separate records, joined by “and”; a condition that tells them apart may be missing. Equal values may be shown once.
# Tested on: 786-0 complex spheroids with HUVEC/MSC, growth % test/control
# Test: Anticancer human tumor 786-0 cell line growth inhibition [AhR];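 note: compound exposure lasted seven days before the read-out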
# Details: for viability, T/C: stronger effect = lower value
# Procedure, shortened: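 Complex tumor spheroids co-cultured with HUVEC and human MSC stroma; AhR antagonists tested in combination with standard-of-care and investigational agents. Top concentration at or near clinical Cmax (else 10 microM), half-log dilutions; growth expressed as percent test/control.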
# [1] = curve of first compound, second compound 0.1 µM
# [2] = curve of first compound, second compound 0.316 µM
# [3] = curve of first compound, second compound 1 µM
# [4] = curve of first compound, second compound 3.16 µM
# [5] = curve of first compound, second compound 10 µM
# [6] = second compound 0.1 µM, first compound 0.0316 µM
# [7] = second compound 0.1 µM, first compound 0.1 µM
# [8] = second compound 0.316 µM, first compound 0.0316 µM
# [9] = second compound 0.316 µM, first compound 0.1 µM
# [10] = second compound 1 µM, first compound 0.0316 µM
# [11] = second compound 1 µM, first compound 0.1 µM
# [12] = second compound 3.16 µM, first compound 0.0316 µM
# [13] = second compound 3.16 µM, first compound 0.1 µM
# [14] = second compound 10 µM, first compound 0.0316 µM
# [15] = second compound 10 µM, first compound 0.1 µM
compound,measurement,setting,value
Cn1ncnc1C1c2n[nH]c(=O)c3cc(F)cc(c23)NC1c1ccc(F)cc1 (configuration not stated) + Cc1ccccc1N=Nc1ccc(NC(=O)c2ccnn2C)c(C)c1,IC50,[1],> 0.1 µM
same,IC50,[2],> 0.1 µM
same,IC50,[3],> 0.1 µM
same,IC50,[4],> 0.1 µM
same,IC50,[5],> 0.1 µM
same,"viability, T/C","second compound 0.1 µM, first compound 0.000316 µM",104%
same,"viability, T/C","second compound 0.1 µM, first compound 0.001 µM",102%
same,"viability, T/C","second compound 0.1 µM, first compound 0.00316 µM",107%
same,"viability, T/C","second compound 0.1 µM, first compound 0.01 µM",101%
same,"viability, T/C",[6],101%
same,"viability, T/C",[7],107%
same,"viability, T/C","second compound 0.316 µM, first compound 0.000316 µM",103%
same,"viability, T/C","second compound 0.316 µM, first compound 0.001 µM",106%
same,"viability, T/C","second compound 0.316 µM, first compound 0.00316 µM",106%
same,"viability, T/C","second compound 0.316 µM, first compound 0.01 µM",106%
same,"viability, T/C",[8],110%
same,"viability, T/C",[9],111%
same,"viability, T/C","second compound 1 µM, first compound 0.000316 µM",101%
same,"viability, T/C","second compound 1 µM, first compound 0.001 µM",106%
same,"viability, T/C","second compound 1 µM, first compound 0.00316 µM",108%
same,"viability, T/C","second compound 1 µM, first compound 0.01 µM",117%
same,"viability, T/C",[10],99.7%
same,"viability, T/C",[11],110%
same,"viability, T/C","second compound 3.16 µM, first compound 0.000316 µM",92.3%
same,"viability, T/C","second compound 3.16 µM, first compound 0.001 µM",105%
same,"viability, T/C","second compound 3.16 µM, first compound 0.00316 µM",92%
same,"viability, T/C","second compound 3.16 µM, first compound 0.01 µM",94%
same,"viability, T/C",[12],88.9%
same,"viability, T/C",[13],91.2%
same,"viability, T/C","second compound 10 µM, first compound 0.000316 µM",98.6%
same,"viability, T/C","second compound 10 µM, first compound 0.001 µM",112%
same,"viability, T/C","second compound 10 µM, first compound 0.00316 µM",90.5%
same,"viability, T/C","second compound 10 µM, first compound 0.01 µM",93.5%
same,"viability, T/C",[14],95.3%
same,"viability, T/C",[15],112%
Nc1ccccc1NC(=O)c1ccc(CNC(=O)OCc2cccnc2)cc1 + Cc1cncc(-c2nc(NCCc3c[nH]c4ccccc34)c3ncn(C(C)C)c3n2)c1,IC50,[1],7.2 µM
same,IC50,[2],7.82 µM
same,IC50,[3],6.75 µM
same,IC50,[4],4.61 µM
same,IC50,[5],< 0.0316 µM
same,"viability, T/C",[6],119%
same,"viability, T/C",[7],114%
same,"viability, T/C","second compound 0.1 µM, first compound 0.316 µM",125%
same,"viability, T/C","second compound 0.1 µM, first compound 1 µM",115%
same,"viability, T/C","second compound 0.1 µM, first compound 3.16 µM",106%
same,"viability, T/C","second compound 0.1 µM, first compound 10 µM",27.8%
same,"viability, T/C",[8],118%
same,"viability, T/C",[9],114%
same,"viability, T/C","second compound 0.316 µM, first compound 0.316 µM",128%
same,"viability, T/C","second compound 0.316 µM, first compound 1 µM",126%
same,"viability, T/C","second compound 0.316 µM, first compound 3.16 µM",115%
same,"viability, T/C","second compound 0.316 µM, first compound 10 µM",32%
same,"viability, T/C",[10],106%
same,"viability, T/C",[11],113%
same,"viability, T/C","second compound 1 µM, first compound 0.316 µM",121%
same,"viability, T/C","second compound 1 µM, first compound 1 µM",108%
same,"viability, T/C","second compound 1 µM, first compound 3.16 µM",97%
same,"viability, T/C","second compound 1 µM, first compound 10 µM",25.6%
same,"viability, T/C",[12],68.1%
same,"viability, T/C",[13],71.4%
same,"viability, T/C","second compound 3.16 µM, first compound 0.316 µM",65.4%
same,"viability, T/C","second compound 3.16 µM, first compound 1 µM",60.5%
same,"viability, T/C","second compound 3.16 µM, first compound 3.16 µM",69.2%
same,"viability, T/C","second compound 3.16 µM, first compound 10 µM",15.2%
same,"viability, T/C",[14],8.31%
same,"viability, T/C",[15],9.06%
same,"viability, T/C","second compound 10 µM, first compound 0.316 µM",3.52%
same,"viability, T/C","second compound 10 µM, first compound 1 µM",0.75%
same,"viability, T/C","second compound 10 µM, first compound 3.16 µM",0.39%
same,"viability, T/C","second compound 10 µM, first compound 10 µM",0.77%
COc1cc(Nc2ncc3c(n2)-c2ccc(Cl)cc2C(c2c(F)cccc2OC)=NC3)ccc1C(=O)O,"viability, T/C",compound 0.0316 µM,94.7% and 108% and 91.5%
same,"viability, T/C",compound 0.1 µM,96% and 110% and 93.9%
same,"viability, T/C",compound 0.316 µM,98% and 122% and 107%
same,"viability, T/C",compound 1 µM,78.9% and 92.7% and 79.7%
same,"viability, T/C",compound 3.16 µM,50.9% and 63.2% and 48.5%
same,"viability, T/C",compound 10 µM,27.6% and 35% and 28.7%
same,IC50,curve of compound,3.17 µM and 5.26 µM and 2.87 µM

# — PubChem BioAssay AID1919003 (Molecular Pharmacology Branch, DTP, NCI, 2023)
